Data on 13 compounds can be found in the Kinase Knowledgebase extract (Sharma et al. 2016).

Structures are written as SMILES.

What is called IC50 is the concentration at which inhibition is half-maximal. The low end stands for inhibition by little substance, the high end for a need for much substance.

The target in this assay is EGFR (human) (UniProt P00533).
Chain of EGFR (human) (P00533 whole entry, looked up): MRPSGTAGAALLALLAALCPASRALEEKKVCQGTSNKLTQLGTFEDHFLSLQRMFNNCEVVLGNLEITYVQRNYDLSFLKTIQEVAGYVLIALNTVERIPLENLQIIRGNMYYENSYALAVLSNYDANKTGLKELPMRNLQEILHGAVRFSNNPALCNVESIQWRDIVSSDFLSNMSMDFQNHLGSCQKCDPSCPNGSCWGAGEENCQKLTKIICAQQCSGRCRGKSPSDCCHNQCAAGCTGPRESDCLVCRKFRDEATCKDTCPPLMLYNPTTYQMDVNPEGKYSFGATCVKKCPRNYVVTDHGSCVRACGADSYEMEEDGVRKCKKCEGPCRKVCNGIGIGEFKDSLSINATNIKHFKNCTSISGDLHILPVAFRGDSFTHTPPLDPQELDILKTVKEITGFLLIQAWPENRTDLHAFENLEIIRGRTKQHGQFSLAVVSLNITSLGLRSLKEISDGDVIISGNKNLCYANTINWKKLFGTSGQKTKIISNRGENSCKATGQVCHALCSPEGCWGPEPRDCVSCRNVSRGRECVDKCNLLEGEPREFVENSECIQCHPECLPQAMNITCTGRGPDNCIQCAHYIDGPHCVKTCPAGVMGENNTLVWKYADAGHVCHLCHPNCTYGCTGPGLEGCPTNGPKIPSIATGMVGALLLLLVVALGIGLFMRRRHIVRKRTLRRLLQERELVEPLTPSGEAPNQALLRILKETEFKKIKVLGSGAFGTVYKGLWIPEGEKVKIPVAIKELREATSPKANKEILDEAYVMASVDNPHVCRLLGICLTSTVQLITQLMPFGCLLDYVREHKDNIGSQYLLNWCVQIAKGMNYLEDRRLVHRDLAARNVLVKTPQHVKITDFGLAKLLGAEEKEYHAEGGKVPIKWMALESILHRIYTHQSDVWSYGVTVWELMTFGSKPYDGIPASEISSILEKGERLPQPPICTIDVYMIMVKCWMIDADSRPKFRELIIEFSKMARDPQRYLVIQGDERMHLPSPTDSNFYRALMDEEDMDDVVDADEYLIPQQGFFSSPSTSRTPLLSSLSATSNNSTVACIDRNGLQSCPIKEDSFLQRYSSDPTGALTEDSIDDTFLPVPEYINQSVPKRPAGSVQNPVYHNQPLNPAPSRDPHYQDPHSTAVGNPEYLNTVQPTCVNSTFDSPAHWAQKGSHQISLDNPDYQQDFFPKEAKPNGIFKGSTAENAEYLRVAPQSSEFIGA
`Nc1ncc(-c2cccc(NC(=O)c3cnc4ccccc4c3)c2)nc1C(=O)N[C@H]1CCCNC1` displayed an IC50 of 1 to 10 µM. In the case of `Nc1ncc(-c2cccc(CNC(=O)Nc3ccc(-c4ccccc4)cc3)c2)nc1C(=O)N[C@H]1CCCNC1`, the IC50 is at least 10 µM. The compound `Nc1ncc(-c2cccc(CNC(=O)c3ccc(F)cc3)c2)nc1C(=O)N[C@H]1CCCNC1` showed an IC50 of 1 to 10 µM. Regarding `Nc1ncc(-c2cccc(CNC(=O)c3cccs3)c2)nc1C(=O)N[C@H]1CCCNC1`, the IC50 is 1 to 10 µM. Regarding `Nc1ncc(-c2cccc(CN[C@@H]3c4ccccc4C[C@@H]3O)c2)nc1C(=O)N[C@H]1CCCNC1`, the IC50 was 1 to 10 µM. `CN(C)c1ccc(CNC(=O)c2cccc(-c3cnc(N)c(C(=O)N[C@H]4CCCNC4)n3)c2)cc1` gave an IC50 of at least 10 µM.

`COc1ccc(CNC(=O)c2cccc(-c3cnc(N)c(C(=O)N[C@H]4CCCNC4)n3)c2)cc1` registered an IC50 of at least 10 µM. In turn, `Nc1ncc(-c2cccc(NC(=O)Cc3ccc(F)cc3F)c2)nc1C(=O)N[C@H]1CCCNC1` had an IC50 of 0.05 to 1 µM. In turn, `Nc1ncc(-c2cccc(C(=O)NCc3ccc(Cl)cc3F)c2)nc1C(=O)N[C@H]1CCCNC1` came in with an IC50 of at least 10 µM.

`Nc1ncc(-c2cccc(C(=O)NCc3ccc(Cl)cc3)c2)nc1C(=O)N[C@H]1CCCNC1` yielded an IC50 of at least 10 µM. `CCNCCOc1cccc(-c2cnc(N)c(C(=O)N[C@H]3CCCNC3)n2)c1` had an IC50 of 1 to 10 µM.

Compound `Nc1ncc(-c2cccc(C(=O)NCc3ccc(OC(F)(F)F)cc3)c2)nc1C(=O)N[C@H]1CCCNC1` returned an IC50 of at least 10 µM. Take `Cc1ccc(CNC(=O)c2cccc(-c3cnc(N)c(C(=O)N[C@H]4CCCNC4)n3)c2)c(F)c1F`: the IC50 was at least 10 µM.
